# Laboratory results reported in patent publication US20070049638A1, “Polymorphic forms of 3-amino-1-propanesulfonic acid” (Neurochem (International) Limited, priority 2005, published 2007).
# Assay: relative stability of the polymorphic forms (crystallisation and slurry interconversion experiments)
# Assay type: physicochemical
# Conditions: stated as 'believed to be'
# Description: Thus in general, without wishing to be bound by theory, slower processes will favor the production of Form B. For example, slow addition of solvent, slow cooling rate and/or mixing will tend to favor the production of Form B, whereas fast solvent addition, fast cooling and/or minimal mixing time will favor production of Form A.
# A mixture of 3-amino-1-propanesulfonic acid form A (0.7654 g) and form B (0.7880 g) were added to ethanol (5 mL) and water (1.25 mL) in a flask. The slurry was placed in a water bath at 5° C. and stirred for four hours. Solids were collected by vacuum filtration to afford form B.
thermodynamic stability of the polymorphic form (between about 5 and about 60° C.),kinetic preference of the polymorphic form (generated from fast timescale experiments),Compound
more thermodynamically stable form,–,"NCCCS(=O)(=O)O [Form B, 3-amino-1-propanesulfonic acid]"
–,kinetically favored form,"NCCCS(=O)(=O)O [Form A, 3-amino-1-propanesulfonic acid]"
